Source: publication PMC6680510, “Benzotriazine Di-Oxide Prodrugs for Exploiting Hypoxia and Low Extracellular pH in Tumors” (Molecules, 2019)
Where two headings read alike, the source gives them in different places.

How the values were obtained:
SiHa cells [1] = assay: IC50 assay (inhibition of proliferation, 4 h exposure, SRB); settings: SiHa; for IC50: Homo sapiens, 4 h
Description: Cells were seeded in 96-well plates (SiHa or FaDu 1500 cells/well, UT-SCC-74B 800 cells/well) in 100 μL. After incubation for 2 h, the drugs were added in 50 μL of the same titrated medium at 3× the final concentration to duplicate the wells. After a further 4 h the plates were checked for drug precipitation using a phase contrast microscope, then drugs were removed by aspirating and washing with the standard (pH 7.4) medium, then aspirating again and adding 150 μL of the medium. Cultures were then grown for 5 days before staining with sulphorhodamine B and measuring absorbance, with the estimation of IC50 values using 4-parameter logistic regression, as previously carried out.
The medium and plasticware was equilibrated in the chamber for 3 days prior to use. In the anoxia experiments, FaDu cells were plated in poly-L-lysine coated plates (Corning Cat # 356461) to improve attachment.
Cells were subsequently grown under standard cell culture conditions (oxia, pHe 7.4) for 5 days before staining with sulforhodamine B (SRB). […] (B) SN30000 (2). (C) BTO acid 4a. Values are means and errors are ranges for duplicate cultures in a single experiment. Fitted curves are 4-parameter logistic regressions. PCR = pH cytotoxicity ratio. ACR = anoxia cytotoxicity ratio. TMR = tumor microenvironment ratio.

FaDu cells = assay: as above; assay type: cell-based; settings: for IC50: Homo sapiens, 4 h
SiHa and FaDu cells = assay: IC50 assay, summary statements over both cell lines; assay type: cell-based; settings: SiHa and FaDu, anoxia, pHe 6.5; read-out: Potency (IC50) under anoxia at pHe 6.5
Description: Cells were seeded in 96-well plates (SiHa or FaDu 1500 cells/well, UT-SCC-74B 800 cells/well) in 100 μL. After incubation for 2 h, the drugs were added in 50 μL of the same titrated medium at 3× the final concentration to duplicate the wells. After a further 4 h the plates were checked for drug precipitation using a phase contrast microscope, then drugs were removed by aspirating and washing with the standard (pH 7.4) medium, then aspirating again and adding 150 μL of the medium. Cultures were then grown for 5 days before staining with sulphorhodamine B and measuring absorbance, with the estimation of IC50 values using 4-parameter logistic regression, as previously carried out [85].

[2] = cited from earlier work
[3] = One-electron reduction potentials by pulse radiolysis; assay type: physicochemical; settings: pH 7.0, equilibrium with redox indicator shown in square brackets
Description: One-electron reduction potentials (E^0′) were determined from the redox equilibria with methylviologen, MV^2+, (E^0′ = […], [34]), dimethyldiquat, V21^2+, (E^0′ = […], [35]), or triquat, TQ^2+, (E^0′ = −548 ± 7 mV [34]). […] Substituting the 3-alkanoic sidechain with the 3-aminoalkanoic sidechain on the BTO 1,4-dioxide lowers the E^0′, as does the addition of the cyclopentane ring. The combined effect is seen for 10a, where the E^0′ value is −565 mV, which is expected to be too low for significant bioreduction under hypoxia.
Time-resolved optical absorption and kinetic studies were carried out using the University of Auckland’s 4 MeV linear accelerator, which has been previously described. The one-electron reduction potentials of the compounds (A) and couple E^0′(A/A^−), versus normal hydrogen electrode, were determined at pH 7.0 (2.5 mM phosphate) by establishing redox equilibria within 50 μs between three mixtures of one-electron reduced A and the viologen reference compounds, MV^2+, TQ^2+ and V21^2+. The determined equilibrium constants were used to calculate the ΔE values using the Nernst equation, correcting for ionic strength effects, as described in the literature.

SiHa cells [4] = assay: Metabolism and uptake of ester 4b in anoxic single cell suspensions; assay type: in vitro ADME; settings: anoxic SiHa suspensions after addition of 4b (150 μM)
Text: If the anionic sidechain of the BTO acids results in low intracellular concentrations, with reductive metabolism occurring largely at the cell surface, the corresponding esters would be expected to provide improved delivery to the intracellular compartment (consistent with their higher cytotoxic potencies, as noted in Section 2.5). To test this, we compared the metabolism of ester 4b (Figure 7A) with its corresponding acid 4a (Figure 7B) by monitoring extracellular concentrations in anoxic SiHa suspensions. The rates of metabolism of both compounds were unaffected by pHe, consistent with the results for 4a in Figure 5B. The ester was metabolized more rapidly than the acid, with only a trace of acid 4a detected transiently as an extracellular metabolite (Figure 7A). The major metabolites were the less polar 1-oxide, 15a, and the 1-oxide of the ester, 16a. In separate experiments with higher initial concentrations of 4b, 15a was again the main extracellular metabolite (Figure 7C, left). […] Compound 4b itself was not detected in the intracellular samples, presumably reflecting a lack of retention in cells and the very low intracellular volume, which will compromise analytical sensitivity (only 2 × 10^6 cells were collected for each analysis in this experiment).
Figure 7 Metabolism of BTO ester 4b and the corresponding acid 4a by anoxic SiHa single cell suspensions (2 × 10^6 cells/mL). (A) Extracellular concentrations following the addition of 4b (50 μM). (B) Extracellular concentrations following the addition of 4a (50 μM). (C) Extracellular (left) and intracellular (right) concentrations following the addition of 4b (150 μM). Values are means and errors are SEM for 3 replicate cultures.

[5] = Solubility in AlphaMEM + 5% FBS, pH 7.4; settings: culture medium (AlphaMEM + 5% FBS), pH 7.4, plasma or biological fluid, thermodynamic from solid
[6] = read-out: Anoxic IC50, SiHa, pHe 6.5, 4 h, anoxic
[7] = read-out: Anoxic IC50, SiHa, pHe 7.4, 4 h, anoxic
[8] = read-out: Oxic IC50, SiHa, pHe 6.5, 4 h, oxic
[9] = read-out: Oxic IC50, SiHa, pHe 7.4, 4 h, oxic
[10] = pHe 6.5, 4 h, anoxic, read-out: Anoxic IC50
[11] = pHe 6.5, 4 h, oxic, read-out: Oxic IC50
[12] = pHe 7.4, 4 h, anoxic, read-out: Anoxic IC50
[13] = pHe 7.4, 4 h, oxic, read-out: Oxic IC50

SMILES: Nc1n[n+]([O-])c2ccccc2[n+]1[O-] [Compound 3, tirapazamine, reference compound]
- IC50 (SiHa cells [1]; [6]): 2.9 ± 0.38 µM
- IC50 (SiHa cells [1]; [7]): 2.81 ± 0.3 µM
- IC50 (SiHa cells [1]; [8]): 91 ± 21 µM
- IC50 (SiHa cells [1]; [9]): 162 ± 8 µM
- TMR (overall TME ratio = oxic IC50 pHe 7.4/anoxic IC50 pHe 6.5) (SiHa cells [1]): 56 ± 8
- PCR Anoxic (IC50 at pHe 7.4/IC50 at pHe 6.5) (SiHa cells [1]): 0.97 ± 0.16
- PCR oxic (IC50 at pHe 7.4/IC50 at pHe 6.5) (SiHa cells [1]): 1.77 ± 0.42
- TMR (oxic IC50 pHe 7.4/anoxic IC50 pHe 6.5) (FaDu cells): 26.2 ± 5.9
- IC50 (FaDu cells; [10]): 6.96 ± 1.38 µM
- IC50 (FaDu cells; [11]): 127 ± 14 µM
- IC50 (FaDu cells; [12]): 5.9 ± 0.48 µM
- IC50 (FaDu cells; [13]): 182 ± 20 µM
- PCR Anoxic (IC50 at pHe 7.4/IC50 at pHe 6.5) (FaDu cells; anoxic): 0.85 ± 0.18
- PCR oxic (IC50 at pHe 7.4/IC50 at pHe 6.5) (FaDu cells; oxic): 1.43 ± 0.22
- ACR (oxic IC50/anoxic IC50) (FaDu cells; pHe 6.5): 18.3 ± 4.1
- ACR (oxic IC50/anoxic IC50) (FaDu cells; pHe 7.4): 30.9 ± 4.2
- IC50 (SiHa and FaDu cells): 2.9 to 8.6 µM
- E^0′ one-electron reduction potential ([2]; pulse radiolysis, redox indicator MV^2+): −456 ± 8 [MV^2+] ^h mV

SMILES: COC(=O)CCc1n[n+]([O-])c2ccccc2[n+]1[O-] [Compound 4b, 3-(3-Methoxy-3-oxopropyl)benzo[e][1,2,4]triazine 1,4-Dioxide]
- E^0′ one-electron reduction potential [3]: −363 ± 7 [MV^2+] mV
- IC50 (SiHa cells [1]; [6]): 1.8 ± 0.46 µM
- IC50 (SiHa cells [1]; [7]): 1.4 ± 0.1 µM
- IC50 (SiHa cells [1]; [8]): 26.3 ± 7.1 µM
- IC50 (SiHa cells [1]; [9]): 34.4 ± 3.5 µM
- TMR (overall TME ratio = oxic IC50 pHe 7.4/anoxic IC50 pHe 6.5) (SiHa cells [1]): 19.1 ± 5.3
- PCR Anoxic (IC50 at pHe 7.4/IC50 at pHe 6.5) (SiHa cells [1]): 0.78 ± 0.21
- PCR oxic (IC50 at pHe 7.4/IC50 at pHe 6.5) (SiHa cells [1]): 1.31 ± 0.38
- ACR (anoxic cytotoxicity ratio = oxic IC50/anoxic IC50) (SiHa cells [1]; pHe 6.5): 14.5 ± 5.4
- ACR (anoxic cytotoxicity ratio = oxic IC50/anoxic IC50) (SiHa cells [1]; pHe 7.4): 24.6 ± 3.1
- TMR (oxic IC50 pHe 7.4/anoxic IC50 pHe 6.5) (FaDu cells): 42.3 ± 2.6
- IC50 (FaDu cells; [10]): 3.3 ± 0.11 µM
- IC50 (FaDu cells; [11]): 98 ± 12 µM
- IC50 (FaDu cells; [12]): 3.2 ± 0.38 µM
- IC50 (FaDu cells; [13]): 140 ± 7 µM
- PCR Anoxic (IC50 at pHe 7.4/IC50 at pHe 6.5) (FaDu cells; anoxic): 0.97 ± 0.12
- PCR oxic (IC50 at pHe 7.4/IC50 at pHe 6.5) (FaDu cells; oxic): 1.43 ± 0.19
- ACR (oxic IC50/anoxic IC50) (FaDu cells; pHe 6.5): 29.6 ± 3.8
- ACR (oxic IC50/anoxic IC50) (FaDu cells; pHe 7.4): 43.6 ± 5.7
- Detection in intracellular samples (SiHa cells [4]): not detected
- melting point: 89 to 91 °C
- solubility [5]: 17.7 mM

SMILES: O=C(O)CCc1nc2ccccc2[n+]([O-])n1 [Compound 15a, 3-(2-Carboxyethyl)benzo[e][1,2,4]triazine 1-Oxide]
- Intracellular concentration, fold lower than that of acid 4a (SiHa cells [4]): approximately 10 fold
- melting point: 152 to 154 °C (dec.)

SMILES: c1cc[n+]2c(c1)-c1cccc[n+]1CCC2 [triquat, 7,8-dihydrodipyrido-[1,2-a:2′,1′-c][1,4]diazepinedium]
- E^0′ of redox indicator ([2]; reference viologen): −548 ± 7 mV
